Results from patent US10662187B2, “Bruton's tyrosine kinase inhibitors” (Zibo Biopolar Changsheng Pharmaceutical Co. Ltd., priority 2016, dated 2020).
Read-outs that look alike come from different tables or passages of the source.

Target: BTK (Homo sapiens (Human), UniProt Q06187)
Experiment: Btk kinase assay (HTRF)
Assay type: biochemical
Method: Btk Kinase Assay and Other Kinases Assay Btk kinase activity was determined using a homogenous time resolved fluorescence (HTRF) methodology. Measurements were performed in a reaction volume of 15 μL using 384-well assay plates. Kinase enzyme, inhibitor, ATP and 1 μM peptide substrate were incubated in a reaction buffer compose of Hepes 50 mM (pH7.0), NaN3 0.02%, BSA 0.01%, Orthocanadate 0.1 mM. […] For each compound, enzyme activity as measured at various concentrations of compound, Negative control reactions were performed in the absence of inhibitor in two replicates and eight no enzyme controls were used to determine baseline fluorescence levels.

[1] = [ATP]=80 μM, BTK=3.4 nM, read-out: BTK Inhibition

Chain of BTK (Q06187 whole entry, species assumed): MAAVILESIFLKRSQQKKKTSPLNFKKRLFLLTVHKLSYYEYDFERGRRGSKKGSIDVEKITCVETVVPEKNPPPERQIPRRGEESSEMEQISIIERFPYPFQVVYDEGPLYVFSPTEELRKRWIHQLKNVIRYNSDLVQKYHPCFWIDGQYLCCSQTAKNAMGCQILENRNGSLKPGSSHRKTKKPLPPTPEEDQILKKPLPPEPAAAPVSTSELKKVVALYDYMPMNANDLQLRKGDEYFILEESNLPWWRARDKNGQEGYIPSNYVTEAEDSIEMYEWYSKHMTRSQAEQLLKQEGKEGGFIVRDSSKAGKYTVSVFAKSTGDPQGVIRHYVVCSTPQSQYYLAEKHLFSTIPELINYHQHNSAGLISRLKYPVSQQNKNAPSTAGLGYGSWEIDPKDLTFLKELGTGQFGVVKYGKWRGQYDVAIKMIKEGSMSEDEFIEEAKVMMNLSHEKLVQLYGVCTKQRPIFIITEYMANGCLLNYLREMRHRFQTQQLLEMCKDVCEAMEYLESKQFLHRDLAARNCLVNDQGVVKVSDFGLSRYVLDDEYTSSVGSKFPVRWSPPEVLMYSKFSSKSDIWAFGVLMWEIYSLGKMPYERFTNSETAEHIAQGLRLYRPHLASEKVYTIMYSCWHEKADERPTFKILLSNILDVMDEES

Row | IC50 [1] [nM] | SMILES | IC50 [nM]
1 | 10 to 100 | C=CC(=O)N1CCC[C@H](n2nc(-c3ccc(C(=C)c4ccccc4)cc3)c3cnccc32)C1 [Compound 95, (S)-1-(3-(3-(4-(1-phenylvinyl)phenyl)-1H-pyrazolo [4,3-c]pyridin-1-yl)piperidin-1-yl)prop-2-en-1-one] | –
2 | 10 to 100 | C=CC(=O)N1CCC[C@@H](n2nc(-c3ccc(Oc4cccc(OC)c4F)cc3)c3cncc(OC(C)C)c32)C1 [Compound 96, (R)-1-(3-(3-(4-(2-fluoro-3-methoxyphenoxy)phenyl)-7-isopropoxy-1H-pyrazolo[4,3-c]pyridin-1-yl)piperidin-1-yl)prop-2-en-1-one] | –
3 | 10 to 100 | C=CC(=O)N1CC[C@@H](n2nc(-c3ccc(OCc4ccccc4F)cc3)c3cnccc32)C1 [Compound 100, (R)-1-(3-(3-(4-((2-fluorobenzyl)oxy)phenyl)-1H-pyrazolo[4,3-c]pyridin-1-yl)pyrrolidin-1-yl)prop-2-en-1-one] | –
4 | 10 to 100 | C=CC(=O)N1CCC[C@@H](n2nc(-c3ccc(OCc4ccccc4F)cc3)c3cnccc32)C1 [Compound 101, (R)-1-(3-(3-(4-((2-fluorobenzyl)oxy)phenyl)-1H-pyrazolo[4,3-c]pyridin-1-yl)piperidin-1-yl)prop-2-en-1-one] | –
5 | 100 to 1000 | C=CC(=O)N1CC[C@@H](n2nc(-c3ccc(C(=O)NCc4cccc(OC)c4)cc3)c3cnccc32)C1 [Compound 103, (R)-4-(1-(1-acryloylpyrrolidin-3-yl)-1H-pyrazolo[4,3-c]pyridin-3-yl)-N-(3-methoxybenzyl)benzamide] | –
6 | 100 to 1000 | C=CC(=O)N1CCC[C@@H](n2nc(-c3ccc(C(=O)NCc4cccc(OC)c4)cc3)c3cnccc32)C1 [Compound 104, (R)-4-(1-(1-acryloylpiperidin-3-yl)-1H-pyrazolo[4,3-c]pyridin-3-yl)-N-(3-methoxybenzyl)benzamide] | –
7 | 100 to 1000 | CC#CC(=O)N1CCC[C@@H](n2nc(-c3ccc(C(=O)Nc4ccccn4)cc3)c3cnccc32)C1 [Compound 105, (R)-4-(1-(1-(but-2-ynoyl)piperidin-3-yl)-1H-pyrazolo [4,3-c]pyridin-3-yl)-N-(pyridin-2-yl)benzamide] | –

The remaining lines, values behind:

Row | SMILES | IC50 [1] [nM] | IC50 [nM]
8 | COc1cccc(Oc2ccc(-c3nn([C@@H]4CCCN(C(=O)/C(C#N)=C/C(C)(C)C)C4)c4c(OC)cncc34)cc2)c1F [Compound 90, (R,E)-2-(3-(3-(4-(2-fluoro-3-methoxyphenoxy)phenyl)-7-methoxy-1H-pyrazolo[4,3-c]pyridin-1-yl)piperidine-1-carbonyl)-4,4-dimethylpent-2-enenitrile] | 10 to 100 | –
9 | COc1cccc(Oc2ccc(-c3nn(CC4CCCN4C(=O)/C(C#N)=C/C(C)(C)C)c4c(OC)cncc34)cc2)c1F (stereo not drawn) [Compound 92, (E)-2-(2-((3-(4-(2-fluoro-3-methoxyphenoxy)phenyl)-7-methoxy-1H-pyrazolo[4,3-c]pyridin-1-yl)methyl)pyrrolidine-1-carbonyl)-4,4-dimethylpent-2-enenitrile] | 10 to 100 | –
10 | C=CC(=O)N1CCC[C@@H](n2nc(-c3ccc(Oc4cccc(OC)c4F)cc3)c3cncc(OCCN(C)C)c32)C1 [Compound 93, (R)-1-(3-(7-(2-(dimethylamino)ethoxy)-3-(4-(2-fluoro-3-methoxyphenoxy)phenyl)-1H-pyrazolo[4,3-c]pyridin-1-yl)piperidin-1-yl)prop-2-en-1-one] | < 10 | –
11 | CC#CC(=O)N1CCC[C@@H](n2nc(-c3ccc(Oc4cccc(OC)c4F)cc3)c3cncc(OCCN(C)C)c32)C1 [Compound 94, (R)-1-(3-(7-(2-(dimethylamino)ethoxy)-3-(4-(2-fluoro-3-methoxyphenoxy)phenyl)-1H-pyrazolo[4,3-c]pyridin-1-yl)piperidin-1-yl)but-2-yn-1-one] | 10 to 100 | –
12 | C=CC(=O)N1CCC[C@@H](n2nc(-c3ccc(COc4ccccc4)cc3)c3ccccc32)C1 [Compound 102, (R)-1-(3-(3-(4-(phenoxymethyl)phenyl)-1H-indazol-1-yl)piperidin-1-yl)prop-2-en-1-one] | – | 10 to 100
